# Patent US10105367B2, “Therapeutic thiophene-, furan-, and pyridine-fused azolopyrimidin-5-(6h)-ones” (Dart Neuroscience (Cayman) Ltd., priority 2012, dated 2018)
# Target: human PDE1B (Homo sapiens (Human), UniProt Q01064)
# Experiment: PDE1B inhibitory assay (IMAP TR-FRET)
# Conditions: PDE1B pIC50, negative log of half-maximal molar inhibitory concentration; 200 nM FAM-cAMP, Calmodulin, CaCl2
row,SMILES,IC50 [µM]
1,"COc1ccc(Cn2c(=O)n3ncnc3c3c4c(sc32)CN(CC2CNCCO2)CC4)cc1 (centres unmarked) [Example 180, 6-(4-Methoxybenzyl)-9-(morpholin-2-ylmethyl)-8,9,10,11-tetrahydropyrido[4′,3′:4,5]thieno[3,2-e][1,2,4]triazolo[1,5-c]pyrimidin-5(6H)-one]",0.1 to 1
2,COc1ccc(Cn2c(=O)n3ncnc3c3c4c(sc32)CN(Cc2ccc3c(c2)OC(F)(F)O3)CC4)cc1 [Example 114],0.1 to 1
3,O=c1n(Cc2ccc(Cl)c(F)c2)c2sc3c(c2c2ncnn12)CCOC3 [Example 93],0.1 to 1
4,O=c1n(Cc2ccc(OC(F)(F)F)cc2)c2sc3c(c2c2ncnn12)CCOC3 [Example 96],1 to 10
5,COc1ccc(Cn2c(=O)n3ncnc3c3cc(CN4CCSCC4)cnc32)cc1 [Example 207],0.1 to 1
6,O=c1n(Cc2ccccc2)c2sccc2c2ncnn12 [Example 24],1 to 10
7,CSc1ccc(Cn2c(=O)n3ncnc3c3cc(CN4C[C@@H](C)O[C@@H](C)C4)cnc32)cc1 [Example 303],0.1 to 1
8,COc1ccc(Cn2c(=O)n3ncnc3c3cc(CN4CCN(C(=O)C(F)(F)F)CC4)cnc32)cc1 [Example 254],0.1 to 1
9,COc1ccc(Cn2c(=O)n3ncnc3c3cc(CCNC(C)c4ccccc4)cnc32)cc1 (centres unmarked) [Example 213],0.1 to 1
10,O=c1n(Cc2ccc(Cl)cc2)c2sc(Cc3ccccc3)cc2c2ncnn12 [Example 22],0.1 to 1
11,COCCN(C)Cc1cnc2c(c1)c1ncnn1c(=O)n2Cc1ccc(OC)cc1 [Example 245],0.1 to 1
12,COc1ccc(Cn2c(=O)n3ncnc3c3cc(CN4CCCN(C)CC4)cnc32)cc1 [Example 232],1 to 10
13,COc1ccc(Cn2c(=O)n3ncnc3c3nc(CN4C[C@@H](C)O[C@@H](C)C4)cnc32)cc1 [Example 231],0.1 to 1
14,COc1ccc(Cn2c(=O)n3ncnc3c3c4c(sc32)NCCC4)cc1OC [Example 100],1 to 10
15,O=c1n(Cc2cccc(Cl)c2)c2sc3c(c2c2ncnn12)CCCC3 [Example 85],0.1 to 1
16,"COc1ccc(Cn2c(=O)n3ncnc3c3cc(CCNC4CCOCC4)cnc32)cc1 [Example 212, 6-(4-Methoxybenzyl)-9-(2-(tetrahydro-2H-pyran-4-ylamino)ethyl)pyrido[3,2-e][1,2,4]triazolo[1,5-c]pyrimidin-5(6H)-one]",1 to 10
17,Cc1cc2c(s1)n(Cc1ccccc1)c(=O)n1ncnc21 [Example 12],1 to 10
18,Cc1ccc(Cn2c(=O)n3ncnc3c3c4c(sc32)COCC4)cc1 [Example 88],0.1 to 1

row,SMILES,IC50 [µM]
1,COc1ccc(Cn2c(=O)n3ncnc3c3cc(CN(C)C)cnc32)cc1 [Example 219],1 to 10
2,C=C(OCC)c1cnc2c(c1)c1ncnn1c(=O)n2Cc1ccc(OC)cc1 [Example 216],0.1 to 1
3,COc1ccc(Cn2c(=O)n3ncnc3c3ccc(CNCc4ccccc4)nc32)cc1 [Example 262],0.1 to 1
4,O=c1n(Cc2ccccc2Cl)c2sc3c(c2c2ncnn12)CCCC3 [Example 81],1 to 10
5,"COc1ccc(Cn2c(=O)n3ncnc3c3cc(CN4CC5CC4CO5)cnc32)cc1 (centres unmarked) [Example 218, 9-(2-Oxa-5-azabicyclo[2.2.1]heptan-5-ylmethyl)-6-(4-methoxybenzyl)pyrido[3,2-e][1,2,4]triazolo[1,5-c]pyrimidin-5(6H)-one]",0.1 to 1
6,COc1ccc(Cn2c(=O)n3ncnc3c3cc(CN4C[C@@H](C)O[C@@H](C)C4)cnc32)c(Br)c1 [Example 286],1 to 10
7,COc1ccc(Cn2c(=O)n3ncnc3c3ccc(CNc4ccccc4)nc32)cc1 [Example 263],0.1 to 1
8,C[C@@H]1CN(Cc2cnc3c(c2)c2ncnn2c(=O)n3Cc2ccc(F)c(F)c2)C[C@H](C)O1 [Example 302],0.1 to 1
9,O=c1n(Cc2ccc(F)cc2)c2sc3c(c2c2ncnn12)CCOC3 [Example 92],1 to 10
10,COc1ccc(Cn2c(=O)n3ncnc3c3ccc(CN(C)C4CC4)nc32)cc1 [Example 260],0.1 to 1
11,CC1(C)Cc2c(sc3c2c2ncnn2c(=O)n3Cc2ccc(Cl)cc2)CO1 [Example 83],0.1 to 1
12,C[C@@H]1CN(Cc2cnc3c(c2)c2ncnn2c(=O)n3Cc2ccc(OC(F)F)cc2F)C[C@H](C)O1 [Example 290],0.1 to 1
13,O=c1n(Cc2ccc(Cl)cc2)c2ncc(CN3CCCCC3)cc2c2ncnn12 [Example 209],1 to 10
14,"COc1ccc(Cn2c(=O)n3ncnc3c3ccc(CN4CCOCC4)nc32)cc1 [Example 256, 6-(4-Methoxybenzyl)-8-(morpholinomethyl)pyrido[3,2-e][1,2,4]triazolo[1,5-c]pyrimidin-5(6H)-one]",1 to 10
15,COc1ccc(Cn2c(=O)n3ncnc3c3ncc(CN4CCCCC4)cc32)cc1 [Example 242],1 to 10
16,COc1ccc(Cn2c(=O)n3ncnc3c3cc(-c4ccc(OC)nc4)cnc32)cc1 [Example 190],0.1 to 1
17,"COc1ccc(Cn2c(=O)n3ncnc3c3c(CN4C[C@@H](C)O[C@@H](C)C4)csc32)cc1 [Example 78, 9-(((2S,6R)-2,6-Dimethylmorpholino)methyl)-6-(4-methoxybenzyl)thieno[3,2-e][1,2,4]triazolo[1,5-c]pyrimidin-5(6H)-one]",0.1 to 1
18,C[C@@H]1CN(Cc2cnc3c(c2)c2ncnn2c(=O)n3Cc2cc(F)cc(F)c2)C[C@H](C)O1 [Example 285],1 to 10

# Same assay, conditions: negative log of half-maximal molar inhibitory concentration; 200 nM FAM-cAMP, Calmodulin, CaCl2
row,SMILES,PDE1B pIC50
1,COc1ccc(Cn2c(=O)n3ncnc3c3c4c(sc32)CN(Cc2scnc2C)CC4)cc1 [Example 123],>7
2,COc1ccc(Cn2c(=O)n3ncnc3c3c4c(sc32)CN(CC2CCOCC2)CC4(F)F)c(F)c1 [Example 156],>7
3,COc1ccc(Cn2c(=O)n3ncnc3c3c(C)c(CN4CCN(C)C(C)(C)C4)sc32)cc1 [Example 74],>7
4,C[C@@H]1CN(Cc2cnc3c(c2)c2ncnn2c(=O)n3Cc2ccc3cnn(C)c3c2)C[C@H](C)O1 [Example 288],<5
5,COc1ccc(Cn2c(=O)n3ncnc3c3c4c(sc32)CN(Cc2nnc(C)s2)CC4)cc1 [Example 108],>7
6,COc1ccc(Cn2c(=O)n3ncnc3c3c(C)c(CN4CCN(C(C)=O)CC4)sc32)cc1 [Example 51],>7
7,COc1ccc(Cn2c(=O)n3ncnc3c3cc(CN4CCC5(CCOCC5)N4C)cnc32)cc1 [Example 228],>7
8,COc1ccc(Cn2c(=O)n3ncnc3c3c4c(sc32)CN(C(=O)C2CCOC2)CC4)c(F)c1 (centres unmarked) [Example 167],>7
9,C[C@@H]1CN(Cc2cnc3c(c2)c2ncnn2c(=O)n3Cc2ccccc2SC(F)(F)F)C[C@H](C)O1 [Example 293],<5
10,C[C@@H]1CN(Cc2cnc3c(c2)c2ncnn2c(=O)n3Cc2ccc(C(C)(C)C)cc2)C[C@H](C)O1 [Example 280],<5
11,COc1ccc(Cn2c(=O)n3ncnc3c3c4c(sc32)CN(CC(C)(C)C)CC4)cc1 [Example 115],>7
12,COc1ccc(Cn2c(=O)n3ncnc3c3c4c(sc32)CN(CC2CCCOC2)CC4)c(F)c1 (centres unmarked) [Example 142],>7
13,COc1ccc(Cn2c(=O)n3ncnc3c3cc(CN4CC(C)OCC4C)cnc32)cc1 (centres unmarked) [Example 225],>7
14,COc1ccc(Cn2c(=O)n3ncnc3c3c(C)c(CN4CCN(C(C)C)CC4)sc32)cc1 [Example 64],>7
15,O=C(C1CC1)N1CCc2c(sc3c2c2ncnn2c(=O)n3Cc2ccc(Cl)cc2F)C1 [Example 164],>7
16,COc1ccc(Cn2c(=O)n3ncnc3c3cc(CN4CC5CC4CO5)sc32)cc1 (centres unmarked) [Example 37],>7

row,SMILES,PDE1B pIC50
1,COc1ccc(Cn2c(=O)n3ncnc3c3c4c(sc32)CN(Cc2ccc(F)cc2)CC4)cc1 [Example 127],>7
2,"COc1ccc(Cn2c(=O)n3ncnc3c3cc(CN4CCCOCC4)sc32)cc1 [Example 29, 8-((1,4-Oxazepan-4-yl)methyl)-6-(4-methoxybenzyl)thieno[3,2-e][1,2,4]triazolo[1,5-c]pyrimidin-5(6H)-one]",>7
3,COc1ccc(Cn2c(=O)n3ncnc3c3c4c(sc32)CN(Cc2nccn2C)CC4)cc1 [Example 122],>7
4,"COc1ccc(Cn2c(=O)n3ncnc3c3cc(-c4ccc(OC)c(OC)c4)cnc32)cc1 [Example 189, 9-(3,4-Dimethoxyphenyl)-6-(4-methoxybenzyl)pyrido[3,2-e][1,2,4]triazolo[1,5-c]pyrimidin-5(6H)-one]",>7
5,COc1ccc(Cn2c(=O)n3ncnc3c3c4c(sc32)CN(Cc2ccccc2F)CC4)cc1 [Example 128],>7
6,COc1ccc(Cn2c(=O)n3ncnc3c3c4c(sc32)CN(Cc2ccccn2)CCC4)cc1 [Example 146],>7
7,COc1ccc(Cn2c(=O)n3ncnc3c3cc(CN4CCC5(CC4)COC5)sc32)cc1 [Example 39],>7
8,"COc1ccc(Cn2c(=O)n3ncnc3c3cc(C(C)N4C[C@@H](C)O[C@@H](C)C4)cnc32)cc1 (stereo partly drawn) [Example 266, 9-(1-((2S,6R)-2,6-Dimethylmorpholino)ethyl)-6-(4-methoxybenzyl)pyrido[3,2-e][1,2,4]triazolo[1,5-c]pyrimidin-5(6H)-one]",>7
9,COc1ccc(Cn2c(=O)n3ncnc3c3c(C)c(CN4CCOCC4)sc32)cc1 [Example 44],>7
10,COc1ccc(Cn2c(=O)n3ncnc3c3c4c(sc32)CN(CC2CC2)CC4)cc1 [Example 110],>7
11,COc1ccc(Cn2c(=O)n3ncnc3c3c4c(sc32)CN(C(=O)C2CCOC2)CC4)cc1 (centres unmarked) [Example 170],>7
12,COc1ccc(Cn2c(=O)n3ncnc3c3cc(-c4cccnc4OC)cnc32)cc1 [Example 191],>7
13,COc1ccc(Cn2c(=O)n3ncnc3c3c4c(sc32)CN(CC2CCC(=O)O2)CC4)cc1 (centres unmarked) [Example 126],>7
14,COc1ccc(Cn2c(=O)n3ncnc3c3cc(CN4CCN5C(=O)OCC5C4)cnc32)cc1 (centres unmarked) [Example 246],>7
15,COc1ccc(Cn2c(=O)n3ncnc3c3c4c(sc32)CN(CC2COCCO2)CC4)cc1 (centres unmarked) [Example 125],>7
16,COc1ccc(Cn2c(=O)n3ncnc3c3c4c(sc32)N(CC2CCOCC2)CCC4)cc1 [Example 148],>7
